Where two headings read alike, the source gives them in different places.
Key:
HCT116 cells = assay: Antiproliferation CCK-8 assay, HCT116; assay type: cell-based; details: Homo sapiens, HCT-116; CCK-8, 72 h, HCT116 (wild-type BRAF); means of three independent experiments; read-out: Cellular IC50 HCT116
Method: HCT116 and HT-29 cells were obtained from the Shanghai Cell Bank (Type Culture Collection (TCC), Chinese Academy of Sciences) and cultured in DMEM (10–013-CVR, corning) supplemented with 10% fetal bovine serum (04-001-1A, BI), 1% penicillin/streptomycin (03-031-1B, BI).
The cells in the logarithmic phase were placed in 96-well plates (∼3000 cells/well) in a complete medium. After incubation overnight, the cells were exposed to the corresponding compounds or vehicle control at the indicated concentration for a further 72 h. Cell proliferation was evaluated using Cell Counting Kit 8 (CCK8, CK04, Dojindo Laboratories, Kumamoto, Japan). OD450 and OD650 were determined using a microplate reader. Absorbance rate (A) for each well was calculated as OD450 −OD650. […] Each IC50 value is expressed as mean ± SD. As is the absorbance rate of the test compound well, Ac is the absorbance rate of the well without either the cell or test compound, and Ab is the absorbance rate of the well with the cell and vehicle control.

HDAC6 = molecular target: T1, HDAC6 (Homo sapiens, UniProt Q9UBN7); assay: HDAC6 fluorescent-based enzymatic activity assay; assay type: biochemical
T1 construct: purchased BPS Bioscience
T1 sequence (Q9UBN7 1-1215): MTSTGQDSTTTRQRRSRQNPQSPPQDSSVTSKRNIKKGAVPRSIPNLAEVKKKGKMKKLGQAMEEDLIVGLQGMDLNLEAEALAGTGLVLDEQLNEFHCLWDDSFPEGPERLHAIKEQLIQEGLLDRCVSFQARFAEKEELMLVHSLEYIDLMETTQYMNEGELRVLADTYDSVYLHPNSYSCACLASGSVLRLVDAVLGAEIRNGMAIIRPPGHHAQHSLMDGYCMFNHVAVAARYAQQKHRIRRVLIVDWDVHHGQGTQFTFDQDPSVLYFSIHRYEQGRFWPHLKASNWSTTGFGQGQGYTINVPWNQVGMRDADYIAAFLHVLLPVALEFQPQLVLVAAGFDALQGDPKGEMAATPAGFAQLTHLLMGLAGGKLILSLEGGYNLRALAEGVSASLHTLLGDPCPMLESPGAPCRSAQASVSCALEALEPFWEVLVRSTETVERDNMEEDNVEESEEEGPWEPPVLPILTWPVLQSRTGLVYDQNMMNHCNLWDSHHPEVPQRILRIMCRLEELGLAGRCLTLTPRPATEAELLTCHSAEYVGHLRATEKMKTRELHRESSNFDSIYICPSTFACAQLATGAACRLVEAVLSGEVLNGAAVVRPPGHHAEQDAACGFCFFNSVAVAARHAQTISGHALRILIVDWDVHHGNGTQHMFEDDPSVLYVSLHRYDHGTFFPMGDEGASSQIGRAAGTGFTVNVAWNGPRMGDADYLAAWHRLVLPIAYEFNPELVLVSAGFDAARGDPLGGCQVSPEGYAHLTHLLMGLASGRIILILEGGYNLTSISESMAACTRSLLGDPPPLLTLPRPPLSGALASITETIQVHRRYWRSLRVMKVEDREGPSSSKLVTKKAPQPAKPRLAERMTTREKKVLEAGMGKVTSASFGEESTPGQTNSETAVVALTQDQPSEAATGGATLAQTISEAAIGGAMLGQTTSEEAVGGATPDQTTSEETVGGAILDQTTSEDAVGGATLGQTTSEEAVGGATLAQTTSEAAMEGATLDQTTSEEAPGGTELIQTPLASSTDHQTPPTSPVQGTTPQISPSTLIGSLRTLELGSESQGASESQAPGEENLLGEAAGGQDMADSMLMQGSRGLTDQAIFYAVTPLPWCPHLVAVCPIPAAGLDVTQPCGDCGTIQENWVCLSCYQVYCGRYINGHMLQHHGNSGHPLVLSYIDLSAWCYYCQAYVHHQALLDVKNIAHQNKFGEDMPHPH
Method: The purified recombinant Human HDACs and their corresponding substrates were purchased from BPS Bioscience (BPS Bioscience Inc., United States). The assays were carried out in a 384-well format using the BPS fluorescent–based HDAC activity assay according to the manufacturer’s protocol. In brief, […] of the HDAC reaction mixture was composed of HDAC assay buffer, […] BSA, serial diluted test compounds, appropriate concentration of HDACs, and […] fluorogenic substrate, the mixture was incubated at 37°C for 60 min, and then stopped by the addition of developer containing trypsin and TSA. After 20 min of incubation, the fluorescence was detected at the excitation wavelength of 360 nm and the emission wavelength of 460 nm using the EnVision Multilabel Reader (PerkinElmer Inc., United States). The analytical software, GraphPad Prism 5.0 (GraphPad Software, Inc., United States) was used to generate IC50 value via non-linear regression analysis.

IC50 (HCT116 cells): 1680 nM
HDAC6 inhibition fold more potent than class I isoforms (HDAC6; HDAC6 vs HDAC1, HDAC2, HDAC3, HDAC8): > 10 fold
HDAC6 inhibition fold more potent than class IIA HDACs (HDAC6; HDAC6 vs HDAC4, HDAC5, HDAC7): > 800 fold
IC50 (HDAC6; Table 1, read-out: Enzymatic IC50 HDAC6): 49.2 nM
IC50 (HDAC6; Table 3 isoform panel, read-out: Enzyme inhibition HDAC6 (Class IIB)): 49 nM
Structure (SMILES): CC(C)(C)c1nc(-c2cccc(NS(=O)(=O)c3c(F)cccc3F)c2F)c(-c2ccnc(NCCCCCCC(=O)NO)n2)s1 [14b, 7-{[4-(2-(Tert-Butyl)-4-(3-((2,6-Difluorophenyl)Sulfonamido)-2-Fluorophenyl)Thiazol-5-yl)Pyrimidin-2-yl]Amino}-N-Hydroxyheptanamide]

— paper PMC9354042, “Discovery of BRAF/HDAC Dual Inhibitors Suppressing Proliferation of Human Colorectal Cancer Cells” (Frontiers in Chemistry, 2022)
